“And” between values parts separate entries of the source, which are not always exact repeats. Equal values may be shown once.

The record followed here is patent US20250320138A1 (priority 2022, published 2025).

Assay [1] relates to chlorine-resistant Methylobacterium strain. Format: cell-based, Methylobacterium fujisawaense.
Assay [2] has the same test system. Format: cell-based, Methylobacterium fujisawaense. This is another data set of the same source.

`O=[O+][O-]` [ozone]: the bactericidal rate in assay [1] was 0.0% and 9.4% and 2.1% and 5.0%. The “inner structure of cell body (electron microscope)” value in assay [2] is “an organization is packed inside the cell body similarly to the blank”.
